The text below walks through data of patent publication US20120149710A1, “SORTASE A INHIBITORS” (priority 2009, published 2012).

In brackets after ≈: the same amount, converted by molar mass. Entries after “also recorded” stand apart in the source; their conditions may differ.

Assay [1] addresses B. anthracis sortase A enzyme (Bacillus anthracis, UniProt P0DPQ5). The assay can be described thus: cell-based. The settings on record: for EC50 (estimated from a single concentration): read-out: EC50 estimated from a single concentration.
The next assay has as its target S. aureus SrtA (Staphylococcus aureus, UniProt Q2FV99). The assay can be described thus: FRET assay of SrtA-catalyzed hydrolysis of Abz-LPETG-Dap(Dnp); IC50 / Ki app. It counts as biochemical. The settings on record: for Ki: read-out: Ki app (apparent dissociation constant of enzyme-inhibitor complex, Morrison's equation), S. aureus SrtA; for IC50: purified enzyme, FRET, read-out: IC50 for inhibition of S. aureus SrtA.

For the next assay, the system named is S. aureus. Description: S. aureus culture growth in the presence of 500 μM inhibitor. The following applies: vs 2.5% DMSO control. It counts as cell-based, Staphylococcus aureus.
Assay [2] has as its target Bacillus anthracis sortase enzyme (BaSrtA) (Bacillus anthracis, UniProt P0DPQ5). Description: biochemical.
For assay [3], the system named is SrtA activity in whole cells, S. aureus strain RN4220. The assay can be described thus: Cell adhesion assay: whole cell adhesion to IgG coated plates (SrtA activity in whole cells). It counts as cell-based, Staphylococcus aureus. The settings on record: IgG coated microtiter plates.
The test system of another assay is S. aureus strain Newman. Description: MIC by microtiter broth dilution method. It counts as cell-based. The following applies: Staphylococcus aureus, read-out: MIC preventing S. aureus growth.
The next assay concerns the target SrtA (Staphylococcus aureus, UniProt Q2FV99). The format is biochemical. The following applies: inhibitor 10-fold above IC50, then rapid dilution.

Chain of B. anthracis sortase A enzyme (P0DPQ5 whole entry, looked up): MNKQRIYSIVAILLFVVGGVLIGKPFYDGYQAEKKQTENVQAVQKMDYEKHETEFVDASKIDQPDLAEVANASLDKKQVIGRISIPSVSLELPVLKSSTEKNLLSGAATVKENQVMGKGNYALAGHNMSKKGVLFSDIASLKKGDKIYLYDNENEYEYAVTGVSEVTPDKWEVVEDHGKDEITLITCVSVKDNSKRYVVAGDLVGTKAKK
Chain of S. aureus SrtA (Q2FV99 60-206): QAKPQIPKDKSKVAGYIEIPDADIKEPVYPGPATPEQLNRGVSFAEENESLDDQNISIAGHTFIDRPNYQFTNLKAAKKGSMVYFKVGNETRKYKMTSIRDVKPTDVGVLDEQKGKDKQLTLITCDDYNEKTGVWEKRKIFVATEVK
Chain of Bacillus anthracis sortase enzyme (BaSrtA) (P0DPQ5 whole entry, looked up): as the sequence (P0DPQ5 whole entry, looked up) above
Chain of SrtA (Q2FV99 60-206): as the sequence (Q2FV99 60-206) above

On to `CCOc1c(SSc2ccccn2)cnn(-c2ccccc2)c1=O` [compound 2-50, 4-Ethoxy-5-(2-pyridyldithio)-2-phenylpyridazin-3-one], for which, in assay [1], the “Concentration giving near complete inhibition of sortase activity” value was “about 34 μM”, the EC50 was around 15 µM and the EC50 (estimated from a single concentration) was above 8 µM. Moreover, at S. aureus SrtA, the Ki is around 0.03 µM.
Turning to `CC1=NN(c2ccccc2)C(=S)/C1=C/Nc1c(Br)cc(Br)cc1Br` [compound 3-12], the “Effect on S. aureus growth in cell culture, in words” value (“Effect on S. aureus growth” below) in the assay on S. aureus is reported as “do not substantially affect bacterial growth; also recorded: do not impair microbial growth in cell culture”. This molecule displayed a Ki in assay [2] of 1.7 µM. Moreover, the EC50 (estimated from a single concentration) in assay [1] was above 28 µM. The “Improvement of potency relative to lead 3” value at S. aureus SrtA (4-NO2 changed to 2,4,6-Br3) is “about 15 fold”. In addition, on S. aureus SrtA, the IC50 worked out at 0.3 µM and the Ki is 0.3 µM.
On to `Cc1oc(CN)nc1C(=O)c1nccs1` [compound 4], for which the “Effect on SrtA-dependent adherence / protein display in whole cells” value in assay [3] is given as “potent effects; also recorded: inhibits protein display by SrtA in vivo”. The IC50 at S. aureus SrtA stood at 7.2 µM.
Regarding `CCSc1c(S)cnn(-c2ccccc2)c1=O` [compound 2-9], in the assay on S. aureus, the “Effect on S. aureus growth” value is recorded as “do not significantly inhibit S. aureus growth; also recorded: not bactericidal; also recorded: do not impair microbial growth in cell culture”. For the same molecule, the Ki in assay [2] is around 0.3 µM. At S. aureus SrtA, the “Inhibition of S. aureus SrtA, potency in words” value is reported as “low micromolar”; the IC50 was 1.4 µM; the Ki is 1.4 µM.
For `CCOc1c(SSc2ccccn2)cnn(-c2cccc(F)c2)c1=O` [2-59, 4-Ethoxy-2-(3-fluorophenyl)-5-(pyridin-2-yldisulfanyl)pyridazin-3(2H)-one], the EC50 (estimated from a single concentration) in assay [1] was above 8 µM.
With `Cc1ccc(N2C(=O)/C(=C/c3cc([N+](=O)[O-])cc(Br)c3O)SC2=S)c(C)c1` [compound 1], in the assay on S. aureus strain Newman, the MIC is around 10 µM (≈ 4.65 µg/mL). Moreover, the “Enzyme activity recovered immediately after dilution” value on SrtA came to 84%. For the same molecule, the “Effect on S. aureus growth” value in the assay with S. aureus is given as “toxic”.

What is called EC50 is the concentration needed to bring the measured effect to its halfway point. A low value points to an effect from little substance. As usually defined, the IC50 is the concentration at which inhibition is half-maximal. As a reminder, the MIC is the lowest concentration found to suppress growth.
